Here are results for 1 compound from publication PMC10254045, “Elaboration of the Effective Multi-Target Therapeutic Platform for the Treatment of Alzheimer’s Disease Based on Novel Monoterpene-Derived Hydroxamic Acids” (International Journal of Molecular Sciences, 2023).

One may read the IC50 as the midpoint of a concentration-inhibition curve. What is called melting point is the temperature, or range, at which the solid turns liquid.

The target in data set [1] is T1, β-amyloid peptide 1-42 (Aβ1-42) (Homo sapiens, UniProt P05067).
T1 construct: the pathological form of β-amyloid peptide 1-42 (Sigma Aldrich); purchased Sigma Aldrich
T1 sequence (P05067 672-713 limits assumed): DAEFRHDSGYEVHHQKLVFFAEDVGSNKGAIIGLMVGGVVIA
As to the kind of experiment: Thioflavin T fluorescent analysis of Aβ1-42 aggregation. It counts as biochemical. The note with it: 48 h, compounds 100 µM, Thioflavin T 10 µM, 48 h registration; read-out: prevention of the aggregation of Aβ1-42. An excerpt: The aggregation process of β-amyloid peptide 1-42 (Aβ1-42), caused by hydrophobic interactions of peptide monomers and, as a consequence, the formation of the most toxic polymorphic structure-oligomeric fragments of Aβ, was detected using the fluorescent dye Thioflavin T (Figure 4a). This method is the most widely used for selective staining and the identification of amyloid aggregates, which is confirmed by a large number of works. Fluorescence analysis using Thioflavin T made it possible to monitor the aggregation process of the pathological form of β-amyloid peptide 1-42 (Sigma Aldrich, St. Louis, MI, USA). The experimental protocol was carried out similarly to that described in [58] with some modifications. The registration of changes in the fluorescence of thioflavin T (10 µM, Sigma Aldrich, St. Louis, MI, USA) was performed on a multifunctional tablet analyzer Cytation™3 (BioTek Instruments, Inc., Winooski, VT, USA) at λex = 450 nm, λem = 480 nm. The fluorescence intensity of the solution without Aβ1-42 was subtracted from the fluorescence values of solutions containing protein, due to the need to subtract the background fluorescence.

A short description of data set [2]: Cell viability, MTT test. It counts as cell-based. The note with it: human, SH-SY5Y neuroblastoma cells, 24-h exposure, read-out: IC50 cytotoxic action. The method, then: The culture of human neuroblastoma cells (defined as SH-SY5Y) was cultured in DMEM with the addition of embryonic bovine serum (10%), 2 mM glutamine (DiaM, Moscow, Russia) and penicillin-streptomycin (100 U/Ml–100 µg/mL, PanEco, Moscow, Russia) in conditions of 5% CO2 in the air at 37 °C. Upon reaching 80% confluence, cells in the amount of 1 × 10^4 were placed in 96-well transparent plates and incubated under the same conditions for 24 h. After the incubation time, the cells were exposed to a 24-h exposure to various concentrations of hydroxamic acids dissolved in dimethyl sulfoxide (range from 1 to 100 µM). An equivalent volume of solvent was used as a control (final DMSO content = 1%).
Cell survival analysis was performed using MTT test. To do this, 3-(4,5-dimethylthiazol-2-yl)-2,5-diphenyltetrazolium bromide (MTT, 5 mg/mL, DiaM, Moscow, Russia) was introduced into all wells and incubated at 37 °C for 2 h to restore metabolically active cells of the yellow tetrazolium salt MTT to purple formazane crystals. The resulting formazane was then re-suspended in 200 µL DMSO per well. The optical density was recorded using a multifunctional Cytation™3 flatbed analyzer (BioTek Instruments, Inc., Winooski, VT, USA) at λ = 530 nm.

The subject of data set [3] is 5xFAD transgenic mice brain mitochondria. The data set is described as follows: Mitochondrial oxygen consumption rate of brain p2 fraction (Seahorse). The format is in vivo. Conditions: p2 fraction of 5xFAD mice treated for three weeks, vs 5xFAD. The text has this:
(§1) As part of the in vivo testing of the biological activity of the leader compound, a transgenic mouse model with Alzheimer’s disease 5xFAD at the age of 13 months was used. This line expresses two human genes: APP (amyloid peptide precursor protein gene) with three types of mutations (Swedish (K670N, M671L), Florida (I716V) and London (V717I)), as well as the presenilin 1 gene with mutations (M146L and L286V) characteristic of this disease. Clinically healthy wildtype single-litter mice C57Bl6/j (n = 8) were used as a control group. Transgenic 5xFAD mice were randomly divided into two groups: (1) animals receiving intraperitoneal injections of hydroxamic acid 35a at a dose of 15 mg/kg (10% DMSO + NaCl) for three weeks—the 5xFAD + 35a group (n = 8) and (2) mice receiving an equivalent volume of solvent—the group 5xFAD (n = 8). […]
The analysis of the work of the complexes of the electron transport chain of mitochondria was carried out on the mitochondrial p2 fraction obtained from brain samples of animals of experimental groups. Mitochondrial respiration was determined by the rate of oxygen consumption by organelles using the Seahorse XFe96 cell metabolism analyzer (Seahorse Bioscience, North Billerica, MA, USA), in full compliance with the protocol described in [169].

Data set [4] concerns 5xFAD transgenic mice brain. The data set is described as follows: Histology of β-amyloid deposits in brain samples (Congo Red). The format is in vivo. Conditions: 21-day administration; cortex, midbrain and hippocampus zone; vs 5xFAD.
Excerpt: as §1, with “8). All animals were kept in standard vivarium conditions at a temperature of 22 ± 1 °C and a humidity of 55% indoors with a 12-h light–dark cycle. The animals had no restrictions in the consumption of water and food.” for “8).”
After cervical dislocation, the half of brain was dissected and fixed with Carnoy’s solution (ethanol–chloroform–glacial acetic acid, 6:3:1) for 17 h. […] The stained deposits were evaluated using a ZEISS LSM 880 laser scanning microscope (Carl Zeiss, Oberkochen, Germany) in the tile scan mode. […]

Molecules are shown by their SMILES.

In turn, `C=C(C)[C@@H]1CC=C(CNC(=O)/C=C/c2ccc(C(=O)NO)cc2)CC1` [Compound 35a, (S,E)-N-hydroxy-4-(3-oxo-3-(((4-(prop-1-en-2-yl)cyclohex-1-en-1-yl)methyl)amino)prop-1-en-1-yl)benzamide] displayed a melting point of 179.9 °C. The inhibition at 100 µM in data set [1] worked out at 73.9%. Besides, the IC50 at 24 h in data set [2] came out at 89.2 ± 2.09 µM. The “activity of complex IV (oxygen consumption rate), increase” value in data set [3] (p < 0.0001) is listed as 177.57%. For the same compound, the “activity of complex II (oxygen consumption rate), increase” value in data set [3] (p = 0.0025) was determined as 57.30%. Moreover, the “number of β-amyloid aggregates in the brain” value in data set [4] is “decreased significantly”.
